Results: the NIST ThermoML archive (doi:10.1021/acs.jced.5b00242)

Assay: xn = mol fraction of the nth substance listed
Conditions: 101 kPa, Liquid; for viscosity: Stabinger Viscometer; for mass density: Vibrating tube method

CCn1cc[n+](C)c1.C[C@H](N)C(=O)[O-] [1-ethyl-3-methylimidazolium L-alaninate] + CCn1cc[n+](C)c1.N#C[C-](C#N)C#N
Conditions	mass density, x2 = 0 [kg/m3]	mass density, x2 = 0.2506 [kg/m3]	mass density, x2 = 0.5 [kg/m3]	mass density, x2 = 0.7499 [kg/m3]	viscosity, x2 = 0 [mPa·s]	viscosity, x2 = 0.2506 [mPa·s]	viscosity, x2 = 0.5 [mPa·s]	viscosity, x2 = 0.7499 [mPa·s]
308.15 K	1116.6	1104	1092.3	1082.6	–	–	37.29	17.74
313.15 K	1113.5	1100.8	1089.1	1079.2	103.54	49.16	30.22	14.83
318.15 K	1110.5	1097.8	1085.9	1075.9	79.34	38.96	24.9	12.94
323.15 K	1107.5	1094.6	1082.7	1072.7	62.21	31.75	20.83	11.23
328.15 K	1104.4	1091.5	1079.5	1069.4	49.69	26.27	17.64	9.84
333.15 K	1101.3	1088.4	1076.3	1066.1	40.5	22.29	15.08	8.51
338.15 K	1098.3	1085.3	1073.1	1062.9	33.22	18.7	13.09	7.74
343.15 K	1095.2	1082.2	1069.9	1059.6	27.72	16.04	11.45	6.93
348.15 K	1092.1	1079.1	1066.6	1056.3	23.38	13.89	10.1	6.26
353.15 K	1088.9	1075.9	1063.1	1052.9	20.03	12.28	8.93	5.45
